Where “and” joins values, the source holds several entries; their conditions need not be identical. Equal values may be shown once.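 Results reflect a 48-hour exposure of cells in 96-well plates to compound at five concentrations. GI50 marks 50% less growth. Definition used: TGI = concentration required for complete inhibition of growth.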
Assays:
Assay in all cases: inhibition of tumour cell growth, NCI panel, 48 h
RPMI-8226 leukemia = test system: RPMI-8226 leukemia
UACC-62 melanoma = test system: UACC-62 melanoma
EKVX NSCLC = test system: EKVX NSCLC
A498 renal = test system: A498 renal
NCI/ADR-RES ovarian = test system: NCI/ADR-RES ovarian
MDA-MB-231 breast = test system: MDA-MB-231 breast
HOP-92 NSCLC = test system: HOP-92 NSCLC
SW-620 colon = test system: SW-620 colon
HT29 colon = test system: HT29 colon
T-47D breast = test system: T-47D breast

Row | SMILES | GI50 (RPMI-8226 leukemia) [µM] | TGI (RPMI-8226 leukemia) [µM] | GI50 (UACC-62 melanoma) [µM] | TGI (UACC-62 melanoma) | GI50 (EKVX NSCLC) [µM] | TGI (EKVX NSCLC) [µM] | GI50 (A498 renal) [µM] | TGI (A498 renal) [µM] | GI50 (NCI/ADR-RES ovarian) [µM] | TGI (NCI/ADR-RES ovarian) [µM] | GI50 (MDA-MB-231 breast) [µM] | TGI (MDA-MB-231 breast) [µM] | GI50 (HOP-92 NSCLC) [µM] | TGI (HOP-92 NSCLC) [µM] | GI50 (SW-620 colon) [µM] | TGI (SW-620 colon) [µM] | GI50 (HT29 colon) [µM] | TGI (HT29 colon) [µM] | GI50 (T-47D breast) [µM] | TGI (T-47D breast)
1 | O=c1c2cc(F)ccc2sc2c(N3CCNCC3)nc3ccc(F)cc3c12 | 2.16 | 4.89 | 1.74 | 3.19 µM | 1.62 | 3.04 | 1.67 | 3.09 | 1.75 | 3.44 | 1.42 | 2.79 | 1.18 | 2.52 | 1.61 | 3.12 | 1.65 | 3.22 |  | 
2 | Nc1ccccc1C#C/C=C\C#Cc1ccc(OCCCNC(=O)c2cc3ccccc3[nH]2)cc1 | 1.01 | 17.6 | 4.11 | > 100 µM | 16.4 | 92.7 | 23 | 48.3 | 10.1 | > 100 | 1.93 | 14.6 | 14.4 | 37.5 | > 100 | > 100 | 32 | > 100 |  | 
3 | CCCNC(=O)C1C(=O)C(=O)N(CCC)C1=O (centres undefined) |  | > 100 |  | > 100 µM |  | > 100 |  | > 100 |  |  |  |  |  | > 100 |  | > 100 |  | > 100 |  | 
4 | CCOC(=O)C1=C(Nc2ccc(Cl)cc2Cl)OCC1=O |  | > 100 |  | > 100 µM |  |  |  |  |  |  |  |  |  | > 100 |  | > 100 |  | > 100 |  | 
5 | CCC(=O)c1c(NOC2OCC(OC(C)=O)C(OC(C)=O)C2OC(C)=O)nc(OC)n(C)c1=O (centres undefined) |  | > 100 |  | > 100 µM |  | > 100 |  | > 100 |  |  |  |  |  | > 100 |  | > 100 |  | > 100 |  | 
6 | N/N=C1\C(=O)N(C2CCCCCC2)C(=O)C1C(=O)NC1CCCCCC1 (centres undefined) |  |  |  | 41.6 µM |  | > 100 |  | > 100 |  |  |  |  |  | 41.6 |  | > 100 |  | > 100 |  | 
7 | CCOC(=O)Nc1nc2ccc(OC)cc2s1 | > 100 | > 100 | > 100 | > 100 µM |  |  |  |  | > 100 | > 100 | > 100 | > 100 | > 100 | > 100 | > 100 | > 100 | > 100 | > 100 | > 100 | > 100 µM
8 | CCNC(=O)COc1ccc(Br)cc1Br |  | > 100 |  | > 100 µM |  | 34.3 |  | > 100 |  |  |  |  |  | > 100 |  | > 100 |  | > 100 |  | 
9 | O=C(/C=C/c1ccccc1)C(Br)C(Br)c1ccccc1 (centres undefined) | 0.317 | 0.909 | 1.64 | 3.29 µM |  |  | 1.9 | 5.68 | 3.37 | 19 | 1.73 | 3.51 |  |  | 0.402 | 1.59 | 1.04 | 2.48 |  | 
10 | O=C(CCC(=O)Nc1ccc(Cl)c(Cl)c1)CC(=O)c1ccc(Br)cc1 |  | > 100 |  | > 100 µM |  | > 100 |  | > 100 |  |  |  |  |  | > 100 |  | > 100 |  | > 100 |  | 
11 | CC(=O)N/N=C1\CC(C)(C)C2CCC1C2 (centres undefined) |  | > 100 |  | > 100 µM |  | > 100 |  | > 100 |  |  |  |  |  | > 100 |  | > 100 |  |  |  | 
12 | COc1cccc(/C(C#N)=C/c2nc3c(N4CCOCC4)nc(Cl)nc3n2C)c1 | 0.376 | 1.87 | 1.2 | 2.47 µM | 1.44 | 2.84 | 1.49 | 2.91 | 2.31 | 9.31 | 1.38 | 2.82 | 0.453 | 2.21 | 0.429 | 1.7 | 0.351 | 1.36 |  | 
13 | COC/C=C\COC |  | > 100 |  | > 100 µM |  | > 100 |  |  |  |  |  |  |  | > 100 |  | > 100 |  | > 100 |  | 
14 | CC1=CC(=O)CC2(C)CC[C@@H]3C[C@]12OC3(C)C (some centres undefined) |  | > 100 |  | > 100 µM |  | > 100 |  | > 100 |  |  |  |  |  | > 100 |  | > 100 |  | > 100 |  | 
15 | COc1ccc(S(=O)(=O)N2CCN(C(=O)c3ccc(-c4ccccc4)cc3)CC2C(=O)NO)cc1 (centres undefined) | > 100 | > 100 |  | 12.5 µM and > 100 µM | 1.61 | 7.02 |  |  |  |  |  |  | > 100 | > 100 |  |  | 0.889 | 12.5 |  | 12.5 µM and > 100 µM
16 | C#Cc1cccc(N2C(=O)c3c(c(-c4ccccc4)c(-c4ccc(Cc5ccc(-c6c(-c7ccccc7)c7c(c(-c8ccccc8)c6-c6ccccc6)C(=O)N(c6cccc(C#C)c6)C7=O)cc5)cc4)c(-c4ccccc4)c3-c3ccccc3)C2=O)c1 |  | > 100 |  | > 100 µM |  | > 100 |  |  |  |  |  |  |  | 29 |  | > 100 |  | > 100 |  | 
17 | C=C(CC(NC(=O)c1ccc(C(CC)Cc2cnc3nc(N)nc(N)c3n2)cc1)C(=O)O)C(=O)O (centres undefined) |  | > 100 |  | > 100 µM |  | > 100 |  |  |  |  |  |  |  |  |  |  |  | > 100 |  | 
18 | CC1=C(C(=O)CC(=O)C(=O)Nc2cc(C)ccc2C)Sc2ccccc2N1 |  | > 100 |  | > 100 µM |  | > 100 |  |  |  |  |  |  |  | > 100 |  | > 100 |  | > 100 |  | 
19 | COc1ccc(NC(=O)CSC2=C(Nc3cccc(Br)c3)C(=O)N(Cc3ccccc3)C2=O)cc1Cl | 4.14 | > 100 | 46.2 | > 100 µM | 84.8 | > 100 |  |  |  |  | > 100 | > 100 | 24.5 | > 100 | > 100 | > 100 | > 100 | > 100 | > 100 | > 100 µM
20 | O=c1/c(=C/c2ccccc2[N+](=O)[O-])sc2nc3ccccc3n12 |  | 20.1 |  | > 100 µM |  | > 100 |  | > 41.6 |  |  |  |  |  | > 46.4 |  | 55.6 |  | > 46.4 |  | 
21 | COC12CCC(=O)C=C1c1ccccc1N2C(C)=O (centres undefined) |  | > 100 |  | > 100 µM |  | > 100 |  | > 100 |  |  |  |  |  |  |  | > 100 |  | > 100 |  | 
22 | CCC[CH2][Sn]([Cl])([Cl])[CH2]CCC | 0.198 | 0.723 | 0.429 | 1.63 µM | 0.848 | 2.25 |  |  |  |  |  |  | 1.15 | 2.64 | 0.333 | 1.24 | 1.44 | 2.81 |  | 

— PubChem BioAssay (NCI)
